Measured values as given in PubChem BioAssay AID2060891 (Molecular Pharmacology Branch, DTP, NCI, 2025).

Tested on: K98450-129-R-PDC complex spheroid growth, percent test/control
Assay: Anticancer human tumor K98450-129-R-PDC patient-derived colon adenocarcinoma cell line growth inhibition [RAS]
Conditions: for IC50: curve of first compound; for viability, T/C: stronger effect = lower value; active = viability on the fitted dose curve at most 10% of control; inactive = the rest
Outline: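 Tumour cells grown as complex spheroids with HUVEC endothelial cells and mesenchymal stem cells, treated with RAS pathway inhibitor combinations. Each agent spans half-log steps from near clinical Cmax, or 10 microM where Cmax is unknown.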

[1] = second compound 0.0316 µM, first compound 0.0316 µM
[2] = second compound 0.0316 µM, first compound 0.1 µM
[3] = second compound 0.0316 µM, first compound 0.316 µM
[4] = second compound 0.0316 µM, first compound 1 µM
[5] = second compound 0.1 µM, first compound 0.0316 µM
[6] = second compound 0.1 µM, first compound 0.1 µM
[7] = second compound 0.1 µM, first compound 0.316 µM
[8] = second compound 0.1 µM, first compound 1 µM
[9] = second compound 0.316 µM, first compound 0.0316 µM
[10] = second compound 0.316 µM, first compound 0.1 µM
[11] = second compound 0.316 µM, first compound 0.316 µM
[12] = second compound 0.316 µM, first compound 1 µM
[13] = second compound 1 µM, first compound 0.0316 µM
[14] = second compound 1 µM, first compound 0.1 µM
[15] = second compound 1 µM, first compound 0.316 µM
[16] = second compound 1 µM, first compound 1 µM
[17] = second compound 3.16 µM, first compound 0.0316 µM
[18] = second compound 3.16 µM, first compound 0.1 µM
[19] = second compound 3.16 µM, first compound 0.316 µM
[20] = second compound 3.16 µM, first compound 1 µM
[21] = second compound 10 µM, first compound 0.0316 µM
[22] = second compound 10 µM, first compound 0.1 µM
[23] = second compound 10 µM, first compound 0.316 µM
[24] = second compound 10 µM, first compound 1 µM
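Also: spheroids exposed to agents for seven days before the viability readout.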
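For viability, T/C in this document: luminescence used as a proxy for viable cell amount.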

C=CC(=O)N1CCN(c2nc(OCC3CCCN3C)nc3c(F)c(-c4nc(N)cc(C)c4C(F)(F)F)c(Cl)cc23)C(C)C1 (centres undefined) + C#Cc1c(F)ccc2cc(O)cc(-c3ncc4c(N5CC6CCC(C5)N6)nc(OCC56CCCN5CC(F)C6)nc4c3F)c12
164 nM: IC50 (second compound 0.0316 µM)
inactive: viability, T/C (second compound 0.0316 µM, first compound 0.00316 µM) 94.9% | viability, T/C (second compound 0.0316 µM, first compound 0.01 µM) 81.4% | viability, T/C [1] 68.7% | viability, T/C [2] 55% | viability, T/C [3] 43.6% | viability, T/C [4] 30.8% | viability, T/C (second compound 0.1 µM, first compound 0.00316 µM) 95.4% | viability, T/C (second compound 0.1 µM, first compound 0.01 µM) 81.3% | viability, T/C [5] 68.7% | viability, T/C [6] 54.3% | viability, T/C [7] 40.5% | viability, T/C [8] 31.4% | viability, T/C (second compound 0.316 µM, first compound 0.00316 µM) 97.7% | viability, T/C (second compound 0.316 µM, first compound 0.01 µM) 86.4% | viability, T/C [9] 70.9% | viability, T/C [10] 58.8% | viability, T/C [11] 33.9% | viability, T/C [12] 32.6% | viability, T/C (second compound 1 µM, first compound 0.00316 µM) 93.4% | viability, T/C (second compound 1 µM, first compound 0.01 µM) 88.7% | viability, T/C [13] 67% | viability, T/C [14] 50.2% | viability, T/C [15] 37.2% | viability, T/C [16] 33.7% | viability, T/C (second compound 3.16 µM, first compound 0.00316 µM) 94.3% | viability, T/C (second compound 3.16 µM, first compound 0.01 µM) 80.4% | viability, T/C [17] 69.7% | viability, T/C [18] 52% | viability, T/C [19] 34.7% | viability, T/C [20] 26.1% | viability, T/C (second compound 10 µM, first compound 0.00316 µM) 82.9% | viability, T/C (second compound 10 µM, first compound 0.01 µM) 78.4% | viability, T/C [21] 68.8% | viability, T/C [22] 53.1% | viability, T/C [23] 38.9% | viability, T/C [24] 24.6%
111 nM: IC50 (second compound 3.16 µM)
137 nM: IC50 (second compound 0.316 µM)
134 nM: IC50 (second compound 10 µM)
143 nM: IC50 (second compound 0.1 µM)
93.2 nM: IC50 (second compound 1 µM)

CC(=O)OC12COC1CC(O)C1(C)C(=O)C(O)C3=C(C)C(OC(=O)C(O)C(NC(=O)OC(C)(C)C)c4ccccc4)CC(O)(C(OC(=O)c4ccccc4)C21)C3(C)C (centres undefined) + C#Cc1c(F)ccc2cc(O)cc(-c3ncc4c(N5CC6CCC(C5)N6)nc(OCC56CCCN5CC(F)C6)nc4c3F)c12
428 nM: IC50 (second compound 0.1 µM)
466 nM: IC50 (second compound 1 µM)
460 nM: IC50 (second compound 3.16 µM)
401 nM: IC50 (second compound 10 µM)
482 nM: IC50 (second compound 0.316 µM)
415 nM: IC50 (second compound 0.0316 µM)
inactive: viability, T/C [1] 105% | viability, T/C [2] 98% | viability, T/C [3] 54.7% | viability, T/C [4] 34.7% | viability, T/C (second compound 0.0316 µM, first compound 3.16 µM) 33.1% | viability, T/C (second compound 0.0316 µM, first compound 10 µM) 35.2% | viability, T/C [5] 109% | viability, T/C [6] 103% | viability, T/C [7] 54.7% | viability, T/C [8] 38% | viability, T/C (second compound 0.1 µM, first compound 3.16 µM) 32.8% | viability, T/C (second compound 0.1 µM, first compound 10 µM) 34.8% | viability, T/C [9] 105% | viability, T/C [10] 103% | viability, T/C [11] 59% | viability, T/C [12] 35.5% | viability, T/C (second compound 0.316 µM, first compound 3.16 µM) 32.4% | viability, T/C (second compound 0.316 µM, first compound 10 µM) 33.4% | viability, T/C [13] 101% | viability, T/C [14] 101% | viability, T/C [15] 57.9% | viability, T/C [16] 36.6% | viability, T/C (second compound 1 µM, first compound 3.16 µM) 32.6% | viability, T/C (second compound 1 µM, first compound 10 µM) 32.1% | viability, T/C [17] 93.2% | viability, T/C [18] 97.1% | viability, T/C [19] 57.9% | viability, T/C [20] 35% | viability, T/C (second compound 3.16 µM, first compound 3.16 µM) 34.2% | viability, T/C (second compound 3.16 µM, first compound 10 µM) 31.9% | viability, T/C [21] 86.1% | viability, T/C [22] 87.8% | viability, T/C [23] 55% | viability, T/C [24] 31.9% | viability, T/C (second compound 10 µM, first compound 3.16 µM) 30.6% | viability, T/C (second compound 10 µM, first compound 10 µM) 29%
